Entries after “also recorded” stand apart in the source; their conditions may differ.
B1: uricase: recombinant enzyme uricase (Fasturtec, Sanofi Synthelabo), degrades uric acid into soluble allantoin (protein, UniProt Q00511 2-302, looked up)
Uricase: SAVKAARYGKDNVRVYKVHKDEKTGVQTVYEMTVCVLLEGEIETSYTKADNSVIVATDSIKNTIYITAKQNPVTPPELFGSILGTHFIEKYNHIHAAHVNIVCHRWTRMDIDGKPHPHSFIRDSEEKRNVQVDVVEGKGIDIKSSLSGLTVLKSTNSQFWGFLRDEYTTLKETWDRILSTDVDATWQWKNFSGLQEVRSHVPKFDATWATAREVTLKTFAEDNSASVQATMYKMAEQILARQQLIETVEYSLPNKHYFEIDLSWHKGLQNTGKNAEVFAPQSDPNGLIKCTVGRSSLKSKL

Experiments:
[1] = system: lung inflammation upon intranasal crystals; assay: Exogenous uric acid crystals-induced lung inflammation and remodeling in mice; assay type: in vivo
Procedure: (§1) Bleomycin sulfate (200-300 μg or 10-15 mg/kg) from Bellon Laboratories (Montrouge, France) in saline, uric acid or allopurinol crystals (100-1000 μg or 5-50 mg/kg) in saline or saline alone are given through the airways by nasal instillation in a volume of 40 μt, under light ketamine-xylasine anaesthesia. The number of cells, chemokines, cytokines and TIMP-1 in the bronchoalveolar space and in the lung were evaluated as described (3). Allopurinol (Sigma-Aldrich) was injected at 500 μg or 25 mg/kg subcutaneously in 0.1-ml sterile NaCl, uricase (Fasturtec, Sanofi Synthelabo) given at 4 μg or 0.2 mg/kg by nasal instillation in 40 μt, at the time of bleomycin administration, at 6 and 9 h. In some experiments, the IL-1Ra (Anakinra, Amgen) was injected at 200 μg or 10 mg/kg subcutaneously in 0.1-ml sterile NaCl, at the time of MSU crystals administration, at 2 and 4 h.
Uric acid or allopurinol crystals were obtained by dissolving 1.68 mg of powder in 0.01 M NaOH preheated to 70° C. and added as required to maintain pH between 7.1 and 7.2. The solution was filtered and incubated at room temperature under slowly and continuously agitation, until crystals have formed. Crystals were washed twice with ethanol 100%, dried, autoclaved and kept sterile. The weight of dry crystals was determined under sterile conditions, crystals are resuspended in PBS by sonication and examined under phase microscopy.
(§2) Bleomycin sulfate (10 mg/kg) from Bellon Laboratories, uric acid or allopurinol crystals (5-50 mg/kg) in saline or vehicle alone were administered by intranasal instillation under light ketamine-xylasine anesthesia, and BAL and lung tissue assayed after 6 h (for uric acid crystal) or 24 h (for bleomycin) for markers of inflammation including cell recruitment and in particular neutrophil influx, chemokine and cytokine levels including KC, IL-6 and IL-1β and 14 days later for markers of tissue remodeling such as gelatinases MMP9 and MMP2 and their inhibitor TIMP-1. […] IL-1Ra (Anakinra, Amgen) was injected at 10 mg/kg subcutaneously.
(§3) After incision of the trachea, a plastic cannula was inserted and airspaces were washed using […] of PBS solution, heated to 37° C. The rib cage was then gently massaged to enable maximum cell collection. The fluid was collected by careful aspiration. […] The samples collected were dispatched in 2 fractions: the first one (1 ml corresponding to the 2 first lavages) was used for mediator measurement and the second one for the cell determination (4 ml). The first fraction was centrifuged (600 g for 10 min) and supernatant was fractionated and kept at −80° C. until mediator determination. The cell pellet was then resuspended in 0.4 ml PBS and, pooled with the second fraction and maintained at 4° C. until cell determination.
(§4) Total cell count was determined in BAL fluid using a particle counter (Z2 Coulter, Beckman Coulter). Differential cell counts were performed on cytospin preparations (Cytospin 3, Thermo Shandon) after staining with 4 min May-Grünwald stain (MG-1L, Sigma chemical, Saint Louis, USA) and 8 min in 95% Giemsa stain (GS-500, Sigma chemical, Saint Louis, USA). Differential cell counts were made on 100 cells using standard morphological criteria.
(§5) IL-1β, KC, IL-6 and TIMP-1 levels in BAL fluid or lung homogenate were determined using ELISA assay kits according to manufacturer's instructions (Mouse DuoSet, R&D system, Minneapolis, USA).

[2] = system: bleomycin-induced lung inflammation; conditions: IL-1 receptor antagonist; published data (ref. 3), FIG. 1; cited from earlier work
[3] = system: bleomycin-induced lung inflammation; assay: Bleomycin-induced acute lung inflammation in mice (24 h); assay type: in vivo; conditions: for Uric acid levels in lung: allopurinol 25 mg/kg s.c. or uricase 0.2 mg/kg i.p. or i.n. at 0, 6 and 9 h; for Neutrophil recruitment in BALF / IL-1β production in lung: allopurinol 25 mg/kg s.c.; for Neutrophil recruitment in BALF: uricase 0.2 mg/kg (0, 6, 9 h) or z-YVAD-fmk 10 mg/kg i.p. (0, 4, 8 h); for Bleomycin-induced (acute) inflammation, overall: 24 h after BLM i.n., treated vs vehicle; for Efficacy, repeated administrations versus higher doses: dose optimisation; for KC production in lung / TIMP-1 production in lung / IL-1β production in lung: lung homogenates 24 h after BLM 10 mg/kg i.n.; for KC production in lung / TIMP-1 production in lung: allopurinol 25 mg/kg s.c. or z-YVAD-fmk 10 mg/kg i.p.; for IL-1β production in lung: uricase 0.2 mg/kg or z-YVAD-fmk 10 mg/kg i.p.
Procedure: as §1, §2, §3
After BAL was performed, the whole lung removed and placed inside a microtube (Lysing matrix D, Q Bio Gene, Illkrich, France) with 1 ml of PBS, total lung tissue extract was prepared using a Fastprep® system (FP120, Q Bio Gene, Illkrich, France), the extract was then centrifuged and the supernatant stored at −80° C. before mediator measurement, MPO or collagen assay with Sircol Collagen Assay (France Biochem Division, France).
as §4, §5
Uric acid concentration was determined in bronchoalveolar lavages and lung homogenates using Amplex® Red Uric Acid/Uricase Assay Kit (Molecular Probe, Eugene). Briefly, uricase catalyzes the conversion of uric acid to allantoin, hydrogen peroxide (H2O2) and carbon dioxide. In the presence of horseradish peroxidase (HRP), H2O2 reacts stoichiometrically with Amplex Red reagent to generate the red-fluorescent oxidation product, resorufin, measured spectrophotometrically.

[4] = system: bleomycin-induced repair and fibrosis; assay: Bleomycin-induced late inflammation, repair and fibrosis in mice (day 8/14); assay type: in vivo; conditions: for Lung fibrotic score (fibrosis with thickening of alveolar septae and inflammation, semi-quantitative) / Alveolar wall destruction, collagen deposition and lung fibrosis on lung sections / Pro-MMP-9 and active MMP-2 gelatinase activities in BALF (zymography) / Pulmonary alpha-I collagen mRNA content: day 14 after BLM 5 mg/kg i.n.; for Lung fibrotic score (fibrosis with thickening of alveolar septae and inflammation, semi-quantitative): Ashcroft score, two observers, vs B6 mice; for Alveolar wall destruction, collagen deposition and lung fibrosis on lung sections: CAB staining; for Pro-MMP-9 and active MMP-2 gelatinase activities in BALF (zymography): allopurinol 15 mg/kg s.c. or uricase 0.2 mg/kg i.p.; for Pulmonary alpha-I collagen mRNA content: real time quantitative PCR
Procedure: Mice were injected at day 0 with allopurinol (15 mg/kg, s.c.), uricase (0.2 mg/kg, i.p.) or saline, at 0, 6 and 9 h after BLM instillation (5 mg/kg, i.n.) and every second days during 8 or 14 days to evaluate remodeling and fibrosis. (A) Late inflammation measured as lymphocytes and neutrophils in the BALF at day 8. […] (D) Alpha1 (I) collagen I mRNA in lung was analyzed by real time quantitative polymerase chain reaction (PCR) amplification after uricase or allopurinol treatment 14 days after BLM administration. […] Chromotrope Aniline Blue (CAB) staining, 20× and 200× magnification. (F) The lesions induced by bleomycin were assessed semi-quantitatively by two pathologists as described (see Materials and methods). […] Results are expressed as mean lung fibrotic score±SD. Data represent mean values±SD from 3 independent experiments (n=6 mice per group).
as §2, §5
MMP-2 and MMP-9 levels were determined by gelatin zymography. Briefly, non-reduced supernatant samples of BAL fluid (15 μl) and standards (161-0305, Bio-Rad, Hercule, USA) were loaded onto 7% polyacrylamide gels (wt/vol) incorporating 0.1% (wt/vol) gelatin substrate. The MMP in the gelatinolytic bands were evaluated using as references recombinant murine Pro-MMP-9 (100 Kd) and recombinant murine Pro-MMP-2 (72 Kd). Proteins were subjected to electrophoresis at 20-30 mA for 3 h. The gel was then washed twice in 2.5% Triton (vol/vol), rinsed 3 times quickly with distillated water, and placed 3 times for 20 min in distillated water. Each different wash was performed under gentle stirring. Gels were incubated overnight at 37° C. in 50 mM Tris buffer (containing 5 mM CaCl2 and 2 μM ZnCL2). […] Only these MMP were quantified.
Quantification of alpha-I collagen was described previously (26). Briefly, frozen lung samples were ground to a fine powder, and homogenized in 2 ml of Trizol reagent (In vitrogen Life technology, Paisley, UK). After vigorous shaking, chloroform was added and the samples were centrifuged at 12,000 g for 20 min. Total RNA was precipitated with isopropanol and dissolved in RNAse-free water. RNAs were reverse-transcribed into cDNA using SuperScript™^II (Invitrogen Life technologies, Paisley, UK). Real-time quantitative PCR was performed by fluorescent dye SYBR Green methodology, using SYBR Green PCR Master Mix (Applied Biosystems) and the ABI Prism 7000 apparatus (perkin-Elmer, Foster city, CA, USA).
After BAL and lung perfusion, the large lobe was fixed in 4% buffered formaldehyde for standard microscopic analysis. 3-μm sections were stained with Hematoxylin and Eosin (H&E) or Chromotrope Aniline Blue (CAB) as described previously (3). The severity of the morphological changes (infiltration by neutrophils and mononuclear cells, destruction and thickening of the alveolar septae and fibrosis) were assessed semi-quantitatively using a numeric fibrotic scale (Ashcroft score) (27).

[5] = crystals 15 mg/kg i.n., kinetics
[6] = 24 h after BLM 10 mg/kg i.n., vs vehicle

Molecule	Uric acid levels in lung [3, 6]	Neutrophil recruitment in BALF [3, 6]	Bleomycin-induced (acute) inflammation, overall [3]	Efficacy, repeated administrations versus higher doses ([3]; data not shown)	KC production in lung ([3]; vs vehicle)	TIMP-1 production in lung ([3]; vs vehicle)	IL-1β production in lung ([3]; vs vehicle)	Lung fibrotic score (fibrosis with thickening of alveolar septae and inflammation, semi-quantitative) [4]	Alveolar wall destruction, collagen deposition and lung fibrosis on lung sections [4]	Pro-MMP-9 and active MMP-2 gelatinase activities in BALF (zymography) [4]	Pulmonary alpha-I collagen mRNA content [4]	further results
Oc1ncnc2[nH]ncc12 [allopurinol crystals, allopurinol]	–	–	–	–	–	–	–	–	–	–	–	Neutrophil recruitment into the BALF ([1]; 6 h after crystals instillation 15 mg/kg i.n.): only little neutrophil recruitment
O=c1[nH]c(=O)c2[nH]c(=O)[nH]c2[nH]1 [uric acid crystals, uric acid]	–	–	–	–	–	–	–	–	–	–	–	Time at which inflammation was resolved [1, 5]: 14 days; Time of maximum of inflammation (cell recruitment in BALF) [1, 5]: 6 h; Pulmonary TIMP-1 at day 14 ([1]; day 14 after crystals, data not shown): returned to basal levels; Cell recruitment in BALF (macrophages, neutrophils) ([1]; intranasal crystals, dose response): dose-dependent cell recruitment; Pulmonary TIMP-1 ([1]; lung homogenates after i.n. increasing doses of crystals): induced pulmonary TIMP-1 expression; also recorded: dose-dependently induced
Anakinra: IL-1 receptor antagonist, IL-1Ra (Anakinra, Amgen)	–	–	–	–	–	–	–	–	–	–	–	Inflammatory response to uric acid crystals (neutrophil influx in BAL) ([1]; 6 h after UA crystals 15 mg/kg i.n., anakinra 10 mg/kg): drastically reduced; Bleomycin-induced lung inflammation, overall [2]: attenuated
Oc1ncnc2[nH]ncc12 [allopurinol]	prevented the increase; also recorded: prevented uric acid increases	reduced	greatly inhibited	repeated administrations were more effective than higher doses	diminished	diminished	diminished	significantly reduced	significantly reduced	significantly reduced and less	inhibited	Total cell counts in BALF ([3]; 24 h after BLM 10 mg/kg i.n., allopurinol 25 mg/kg s.c. at 0, 6 and 9 h, vs vehicle): reduced; IL-1β, KC and TIMP-1 in the BALF ([3]; after BLM, allopurinol treatment, data not shown): diminished; KC production in lung ([3]; vs vehicle, listed as Allopurinol): reduced; Late lymphocyte and neutrophil recruitment in the BALF ([4]; day 8 after BLM 5 mg/kg i.n., allopurinol 15 mg/kg s.c. at 0, 6, 9 h and every second day): reduced; Late production of TIMP-1 in lung homogenates and BALF ([4]; day 8 after BLM 5 mg/kg i.n., allopurinol 15 mg/kg s.c., BALF data not shown): inhibited
z-YVAD-fmk	–	reduced	reduced	–	reduced	reduced	reduced	–	–	–	–	–
B1	reduced	reduced	–	repeated administrations were more effective than higher doses	–	–	reduced	significantly reduced	significantly reduced	significantly reduced and less	inhibited	–

Reference: patent publication US8569017B2, “Method for the preventing and/or treating IL-1 beta lung pathology in mammals by administering a uric acid reducing compound” (Centre National de la Recheche Scientifique (CNRS), priority 2008, dated 2013)
